Laboratory results from patent publication US20120258980A1, “Antibacterial Agent for Drug-Resistant Bacteria, Method for Screening for Same, and Use of Same” (priority 2009, published 2012).
Like-named read-outs stand apart in the source and are kept apart here.

Columns and labels:
[1] = tested on: VRSA clinical isolates; test: microbe, parasite or virus in culture; assay type: cell-based; conditions: Staphylococcus aureus
Description: Each of the bacterial strains listed in Table 1-1 was shake-cultured at 37° C. overnight in 4 mL of a medium (Tryptical Soy Broth: TSB, product of Becton Dickinson and Company). FDA209P was used as a control.
After completion of culturing, the resultant culture was suspended in a cation-adjusted Mueller Hinton Broth (CAMHB, product of Becton Dickinson and Company). Then, the obtained bacterial culture was adjusted in absorbance with the CAMHB so that the absorbance at 578 nm of the bacterial culture was adjusted to 0.3 measured by an absorption spectrometer. In addition, the resultant bacterial culture was 500-fold diluted with the CAMHB.
Each of the 500-fold diluted, pre-cultured bacterial cultures was added at 50 μL/well to the CAMHB containing the quinolones and the nybomycins at various concentrations (50 μL/well), followed by statically culturing at 37° C. overnight.
After completion of culturing, the growth of the bacteria was visually determined based on turbidity to measure MIC in each bacterial strain.
Here, the glycopeptides used were VCM and TEIC. The β-lactam used was OXA.

[2] = tested on: VISA clinical isolates of MRSA (VI-MRSA) and of MSSA (VI-MSSA); test: microbe, parasite or virus in culture; assay type: cell-based, Staphylococcus aureus
Procedure, shortened: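 Strains were grown overnight at 37° C in TSB, adjusted in CAMHB to 0.3 absorbance at 578 nm and diluted 500-fold before equal-volume addition to compound dilutions.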

[3] = tested on: Enterococcus faecalis; test: MIC measurement, Test Example 6 (enterococcus); assay type: cell-based; conditions: Enterococcus faecalis, read-out: MIC
Procedure, shortened: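 Broth microdilution in cation-adjusted Mueller Hinton: inoculum from overnight TSB cultures adjusted to absorbance 0.3 at 578 nm and diluted 500×. Compounds at various concentrations; static 37° C overnight incubation. MIC = lowest concentration without visible turbidity; strains include two vancomycin-resistant NCTC isolates.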

[4] = tested on: methicillin-susceptible S. aureus (MSSA), MRSA and mutants thereof; test: MIC measurement, Test Example 3 (MSSA, MRSA and sequential gyrA/grlA quinolone-resistant mutants); assay type: cell-based, Staphylococcus aureus; conditions: Staphylococcus aureus
Procedure, shortened: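 Broth microdilution in cation-adjusted Mueller Hinton broth: inoculum from overnight TSB cultures set to A578 0.3, then 500-fold diluted and added 1:1 to serial compound concentrations.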

Measured: MIC

CC1COc2c(N3CCN(C)CC3)c(F)cc3c(=O)c(C(=O)O)cn1c23 (stereo not drawn) [OFLX, ofloxacin]
> 128 µg/mL: [1]; VRS5, VRSA, Michigan | [4]; MR5867-4, fourth-step mutant, further gyrA E88K
4 µg/mL: [2]; Staphylococcus aureus, P1V44, VI-MSSA, Belgium | [3]; E. faecalis 36-15730, quinolone-susceptible enterococci | [3]; E. faecalis 36-15741, quinolone-susceptible enterococci
32 µg/mL: [1]; VRS1, VRSA, Michigan | [1]; VRS2, VRSA, Pennsylvania | [1]; VRS3, VRSA, New York | [1]; VRS4, VRSA, New York | [2]; Staphylococcus aureus, 99/3759-V, VI-MRSA, The United Kingdom | [2]; Staphylococcus aureus, HIP07930, VI-MRSA, America | [2]; Staphylococcus aureus, HIP09662, VI-MRSA, America | [2]; Staphylococcus aureus, HIP09735, VI-MRSA, America | [2]; Staphylococcus aureus, HIP10540, VI-MRSA, America | [2]; Staphylococcus aureus, HIP13057, VI-MRSA, America
8 µg/mL: [2]; Staphylococcus aureus, HIP13036, VI-MRSA, America | [2]; Staphylococcus aureus, LY-1999-01, VI-MSSA, Oman | [2]; Staphylococcus aureus, LY-1999-03, VI-MRSA, Oman
128 µg/mL: [2]; Staphylococcus aureus, AMC11094, VI-MRSA, Korea | [2]; Staphylococcus aureus, IL (HIP7737), VI-MRSA, America | [2]; Staphylococcus aureus, MI (HIP5827), VI-MRSA, America | [2]; Staphylococcus aureus, MRSA / MSSA / NRS 79 / VISA, NRS79, VI-MRSA, America | [3]; E. faecalis 36-15686, quinolone-resistant enterococci | [3]; E. faecalis 36-15716, quinolone-resistant enterococci | [3]; E. faecalis 36-15726, quinolone-resistant enterococci | [4]; MS5935-3, third-step mutant, further grlA E84K
0.25 µg/mL: [2]; Staphylococcus aureus, SA MER-S20, VI-MSSA, France
16 µg/mL: [2]; Staphylococcus aureus, 99/3700-W, VI-MRSA, The United Kingdom | [2]; Staphylococcus aureus, 98141, VI-MRSA, France | [2]; Staphylococcus aureus, A7 (JCSC4842), VI-MRSA, Taiwan | [2]; Staphylococcus aureus, B7 (JCSC4852), VI-MRSA, Taiwan | [2]; Staphylococcus aureus, HIP06297, VI-MRSA, America | [2]; Staphylococcus aureus, HIP06854, VI-MRSA, America | [2]; Staphylococcus aureus, HIP07920, VI-MRSA, America | [2]; Staphylococcus aureus, HIP08926, VI-MRSA, America | [2]; Staphylococcus aureus, HIP09313, VI-MRSA, America | [2]; Staphylococcus aureus, JCSC7193, VI-MRSA, Thailand | [2]; Staphylococcus aureus, JCSC7203, VI-MRSA, Thailand | [2]; Staphylococcus aureus, MRSA / MSSA / NRS 126 / VISA, NRS126, VI-MRSA, America | [2]; Staphylococcus aureus, Mu3, VI-MRSA, Japan | [2]; Staphylococcus aureus, Mu50, VI-MRSA, Japan | [2]; Staphylococcus aureus, PC, VI-MRSA, America
64 µg/mL: [1]; VRS6, VRSA, Michigan | [1]; VRS7, VRSA, Michigan | [2]; Staphylococcus aureus, 28160, VI-MRSA, South African Republic | [2]; Staphylococcus aureus, BR1, VI-MRSA, Brazil | [2]; Staphylococcus aureus, BR2, VI-MRSA, Brazil | [2]; Staphylococcus aureus, BR3, VI-MRSA, Brazil | [2]; Staphylococcus aureus, BR4, VI-MRSA, Brazil | [2]; Staphylococcus aureus, BR5, VI-MRSA, Brazil | [2]; Staphylococcus aureus, HIP09143, VI-MRSA, America | [2]; Staphylococcus aureus, HIP09433, VI-MRSA, America | [2]; Staphylococcus aureus, HIP09737, VI-MSSA, America | [2]; Staphylococcus aureus, HIP09740, VI-MRSA, America | [2]; Staphylococcus aureus, HIP10267, VI-MRSA, America | [2]; Staphylococcus aureus, HIP12864, VI-MRSA, America | [2]; Staphylococcus aureus, JCSC7195, VI-MRSA, Thailand | [2]; Staphylococcus aureus, LIM2, VI-MRSA, France | [2]; Staphylococcus aureus, MRSA / MSSA / NRS 76 / VISA, NRS76, VI-MSSA, America | [2]; Staphylococcus aureus, MRSA / MSSA / NRS 118 / VISA, NRS118, VI-MRSA, America | [2]; Staphylococcus aureus, NJ (HIP5836), VI-MRSA, America | [3]; E. faecalis 36-15694, quinolone-resistant enterococci | [3]; E. faecalis 36-15703, quinolone-resistant enterococci | [3]; E. faecalis 36-15722, quinolone-resistant enterococci | [4]; MR5867-3, third-step mutant, further grlA S80F | [4]; MS5952-3, third-step mutant, further grlA A116V
2 µg/mL: [3]; E. faecalis 36-15672, quinolone-susceptible enterococci | [3]; E. faecalis 36-15673, quinolone-susceptible enterococci | [3]; E. faecalis 36-15678, quinolone-susceptible enterococci | [3]; E. faecalis 36-15688, quinolone-susceptible enterococci | [3]; E. faecalis 36-15696, quinolone-susceptible enterococci | [3]; E. faecalis 36-15718, quinolone-susceptible enterococci | [3]; E. faecalis 36-15720, quinolone-susceptible enterococci | [3]; E. faecalis 36-15736, quinolone-susceptible enterococci | [3]; NCTC 12201 / VRE, E. faecalis NCTC12201, vancomycin-resistant (VRE), quinolone-susceptible enterococci | [3]; NCTC 12203 / VRE, E. faecalis NCTC12203, vancomycin-resistant (VRE), quinolone-susceptible enterococci
1 µg/mL: [2]; Staphylococcus aureus, SA MER-S6, VI-MSSA, France | [4]; MR5867-1, first-step quinolone-resistant mutant, grlA E84K | [4]; MS5935-1, first-step quinolone-resistant mutant, grlA S80F | [4]; MS5952-1, first-step quinolone-resistant mutant, grlA S80Y
0.5 µg/mL: [2]; Staphylococcus aureus, SA MER-S12, VI-MSSA, France
